# Measured values: US20250130239A1, “PROTEIN DEGRADER” (University of Dundee, priority 2021, published 2025)
# Legend:
# [1] = molecular target: T1, VHL, compound preincubated with Brd4^BD2 L387A (Homo sapiens, UniProt O60885+P40337, L387A); experiment: Fluorescence polarization competitive binding assay, ternary complex binding; conditions: displacement of HIF-1a peptide probe, read-out: ternary binding affinity Kd
# T1 construct: N-terminally Hiss-tagged VHL (54-213); N-terminally His6-tagged Brd4-BD2^L387A (333-460) was expressed in E. coli; His6 (N, cleaved yes); made in house; host or cells: E. coli
# Procedure: Protein Expression and Purification. […] The complex was further purified by anion exchange followed by gel filtration chromatography.
# Fluorescence Polarization Binding Assay. […] All components were dissolved from stock solutions using 100 mM Bis-Tris propane, 100 mM NaCl, 1 mM DTT, pH 7.0, to yield a final assay volume of 15 μL. DMSO was added as appropriate to ensure a final concentration of 2% v/v. […] Percentage displacement values were obtained by normalization of controls were plotted against Log[Compound]. IC50 values were determined for each titration using nonlinear regression analysis with Prism (v. 9.1.0, GraphPad). […] Cooperativity values (a) for each PROTAC were calculated using the ratio: α=binary Kd (−bromodomain)/ternary Kd (+bromodomain).
# MV-4-11 cells = experiment: CellTiter-Glo cell viability assay, MV-4-11; format: cell-based, human; conditions: up to 10 μM; 24 h
# Procedure: (§1) Cell Viability Assay. MV-4-11 cells were plated at a density of 2×10^4 cell per well of a 96 well white-bottom plate, and left to grow overnight in 50 μl of IMDM (Invitrogen, arlsebad, CA, USA) supplemented with 10% (v/v) Fetal bovine serum (FBS) (Thermo Fisher, Waltham, MA, USA) and 1% (v/v) penicillin/streptomycin (pen/strep) (#15140122, Thermo Fisher, Waltham, MA, USA) at 37° C., 5% CO2, and 95% humidity. […] These cells were then left to incubate at 37° C., 5% CO2, and 95% humidity for one day prior to undergoing spectrophotometric analysis. 22RV1 cells were plated at a density of 2×10^4 cell per well of a 96 well white-bottom plate, and left to grow overnight in 100 μL of RPMI-1640 (Invitrogen, Carlsebad, CA, USA) supplemented with 10% (v/v) fetal bovine serum (FBS) (Thermo Fisher, Waltham, MA, USA) and 1% (v/v) penicillin/streptomycin (pen/strep) (#15140122, Thermo Fisher, Waltham, MA, USA) at 37° C., 5% CO2, and 95% humidity. […] Plates were subjected to 2 mins on an orbital shaker to encourage lysis and left for a further 5 mins to reach peak luminescence. Luminescence was then recorded on a BMG Labtech PHERAstar luminescence plate reader with recommended settings. Data extracted from this analysis was analysed with Graphpad Prism (v. 8.2.0, GraphPad) and normalized to the DMSO vehicle control. […]
# 22RV1 cells = experiment: CellTiter-Glo cell viability assay, 22RV1; format: cell-based, human; conditions: up to 10 μM; 48 h
# Procedure: as §1
# BromoTag-Brd2 = molecular target: T2, BromoTag-Brd2 (Homo sapiens, UniProt O60885+P40337, L387A); experiment: Recovery (washout) assay; format: cell-based
# T2 construct: comprising residues 368-440 of human Brd4; Brd2 (endogenous protein, fusion partner in the same polypeptide); eGFP-P2A (upstream marker in the knock-in cassette) (N, cleaved yes); expressed in transfected cells; host or cells: HEK293, heterozygous CRISPR knock-in at the endogenous BRD2 locus
# Procedure: Recovery Assay. A recovery assay was performed using 200 nM AGB1 over a 72 h period. This was performed in the genotype verified heterozygous BromoTag-Brd2 HEK293 cell line. Heterozygous BromoTag-Brd2 HEK293 cells were plated at a density of 5×10^5 cells per well of a six-well plate a day before initiating the recovery assay. On the experiment day, cells were washed with PBS before fresh DMEM was applied to contain either DMSO or AGB1 200 nM. During treatment, cells were kept at 37° C., 5% CO2, and 95% humidity. After three hours, the recovery and vehicle control condition cells were rewashed with PBS before fresh DMEM was applied absent 200 nM AGB1 or DMSO. As for the positive control condition, they were left with 200 nM AGB1 for the remainder of the treatment time.
# Western Blotting. All cells were harvested on ice with RIPA lysis, and extraction buffer (ThermoFisher Scientific, 89901) supplemented with protease inhibitor cocktail (Merck, 11697498001) and Benzonase® Nuclease (Sigma, E1014) before being store at −20° C. prior to use. Total protein quantity was determined using the BCA protein assay (#23225, Pierce, Rockford, Illinois). Protein concentration was determined using the BCA assay (ThermoFisher Scientific, 23225). Samples were then prepared and loaded onto NuPAGE™ 4-12% Bis-Tris Midi gels (ThermoFisher Scientific, WG1403A), followed by the transfer of the proteins onto nitrocellulose membranes (EMD Millipore). The membranes were blocked for 1 h prior to incubation with the primary antibodies using 5% Milk TBST. Membranes were probed for Brd2 (Abcam, Ab139690, 1:1000), Brd3 (Abcam, Ab50818, 1:4000), Brd4 (Abcam, Ab128874, 1:1000) or our polyclonal Brd4^BD2 L387A antibody. […] All western blots were analysed for band intensities using Image Lab from Bio-Rad (LI-COR, Biosciences). The data extracted from these blots were then plotted and analysed using Prism (v. 8.2.0, GraphPad).
compound,measurement,setting,value
"CC[C@@H](C(=O)OCCOCCOCCOCC(=O)N[C@H](C(=O)N1C[C@H](O)C[C@H]1C(=O)NCc1ccc(-c2scnc2C)cc1)C(C)(C)C)[C@@H]1N=C(c2ccc(Cl)cc2)c2c(sc(C)c2C)-n2c(C)nnc21 (single isomer, unassigned) [AGB1 (46)]",Kd,[1],11 nM
same,cytotoxicity,MV-4-11 cells,lack of cytotoxicity
same,cytotoxicity,22RV1 cells,lack of cytotoxicity
same,time after washout at which BromoTag-Brd2 protein levels recover,"BromoTag-Brd2; 200 nM for 3 h, then washout",24 h
same,BromoTag-Brd2 level after 3 h treatment,"BromoTag-Brd2; 200 nM, 3 h",complete depletion
same,on-target degradation without washout,"BromoTag-Brd2; 200 nM, no washout",complete and durable on-target degradation for up to 72 h
